# Laboratory results: patent publication US12565485B2, “Solid forms of 1-((S)-4-((R)-7-(6-amino-4-methyl-3-(trifluoromethyl)pyridin-2-yl)-6-chloro-8-fluoro-2-(((s)-1-methylpyrrolidin-2-yl)methoxy)quinazolin-4-yl)-3-methylpiperazin-1-yl)prop-2-en-1-one” (Genentech, Inc., priority 2022, dated 2026)
# Columns and labels:
# [1] = Slurry conversion experiments (XRPD of isolated solids); assay type: physicochemical
# Method: Slurry conversion experiments were conducted at RT in different solvent systems. About 15˜20 mg of freebase starting material (Compound 1) was suspended in 0.5 mL of solvent in an HPLC vial. Solids were isolated for XRPD analysis after magnetically stirring at RT.
# Slurry at 5°. Slurry conversion experiments were conducted at 5° C. in different solvent systems. About 15˜20 mg of freebase starting material (Compound 1) was suspended in 0.5 mL of solvent in an HPLC vial. Solids were isolated for XRPD analysis after magnetically stirring at 5° C.
# Slurry at 50°. Slurry conversion experiments were conducted at 50° C. in different solvent systems. About 20 mg of freebase starting material (Compound 1) was suspended in 0.5 mL of solvent in an HPLC vial. Solids were isolated for XRPD analysis after magnetical stirring at 50° C.
# Slurry at RT for Compound A. Slurry conversion experiments were conducted at RT in different solvent systems. […] Solids were isolated for XRPD analysis after magnetic stirring at RT.
# Slurry at 50° for Compound A. Slurry conversion experiments were conducted at 50° C. in different solvent systems. […] Solids were isolated for XRPD analysis after magnetic stirring at 50° C.
# [2] = Liquid vapor diffusion; assay type: physicochemical
# Method: Liquid vapor diffusion. Liquid vapor diffusion experiments were conducted in different solvent systems. […] This solution was then placed into a 20-mL vial with 3 mL of corresponding anti-solvent. The 20-mL vial was sealed with a cap and kept at RT allowing sufficient time for organic vapor to interact with the solution. The precipitates were isolated for XRPD analysis.
# Liquid vapor diffusion Compound A. Liquid vapor diffusion experiments were conducted in different solvent systems. […] This solution was then placed into a 20-mL vial with 3 mL of corresponding anti-solvent. The 20-mL vial was sealed with a cap and kept at RT allowing sufficient time for organic vapor to interact with the solution. The precipitates were isolated for XRPD analysis.
# [3] = Slow evaporation; assay type: physicochemical
# Method: Slow evaporation. Slow evaporation experiments were performed under 10 conditions. Briefly, about 15˜20 mg of freebase starting material (810935-01-A) was dissolved in 0.5˜1.0 mL of solvent in a 3-mL glass vial.
# Slow evaporation Compound A. Slow evaporation experiments were performed under seven conditions.
# [4] = Anti-solvent addition; assay type: physicochemical
# Method: Anti-solvent addition. A total of 12 anti-solvent addition experiments were carried out. […] The obtained precipitate was isolated for XRPD analysis.
# Anti-solvent addition Compound A. A total of 14 anti-solvent addition experiments were carried out. […] The obtained precipitate was isolated for XRPD analysis.
# [5] = Summary of polymorph screening experiments, total over all methods; assay type: physicochemical
# Method: A total of 64 polymorph screening experiments were performed for freebase Compound 1 using the sample received as starting material through different crystallization methods. As a result, Form A was obtained from polymorph screening.
# Results summarized in Table 40 were used to guide the solvent selection in polymorph screening of adipate.
# [6] = VH-XRPD analysis / transitions of forms at varying relative humidity; assay type: physicochemical
# From the text: FIG. 19. The sample then reverts to the original form upon reaching 30% RH. […] Transitions of Forms of Compound A at varying RH.
# [7] = Overall summary of solid form stability; settings: compared with the other identified salt forms
# From the text: Overall Summary. […] The amorphous form is considered for development purposes to be unstable for further development.
# [8] = Solid vapor diffusion; assay type: physicochemical; settings: adipate polymorph screening summary; Solid Vapor Diffusion
# Method: Solid vapor diffusion Compound A. Solid vapor diffusion experiments were conducted using 12 different solvents. […] The 20-mL vial was sealed with a cap and kept at RT allowing solvent vapor to interact with the sample.
# [9] = Slow cooling; assay type: physicochemical; settings: adipate polymorph screening summary; Slow Cooling
# Method: Slow cooling Compound A. Slow cooling experiments were conducted in four solvent systems. […] The suspension was then heated to 50° C., equilibrated for about 2 hr and filtered to a new vial using a seal membrane (PTFE, pore size of 0.45 μm). Filtrates were slowly cooled down to 5° C. at a rate of 0.1° C./min. The obtained solids were kept isothermal at 5° C. before isolation for XRPD analysis.
smiles,measurement,setting,value
"C=CC(=O)N1CCN(c2nc(OC[C@@H]3CCCN3C)nc3c(F)c(-c4nc(N)cc(C)c4C(F)(F)F)c(Cl)cc23)[C@@H](C)C1 (atropisomer, axis not shown) [Compound 1, 1-((S)-4-((R)-7-(6-amino-4-methyl-3-(trifluoromethyl)pyridin-2-yl)-6-chloro-8-fluoro-2-(((S)-1-methylpyrrolidin-2-yl)methoxy)quinazolin-4-yl)-3-methylpiperazin-1-yl)prop-2-en-1-one]",Slurry conversion result (XRPD form),"[1]; 5° C., different solvent systems",Form A and amorphous were obtained
same,Slurry conversion result (XRPD form),"[1]; 50° C., H2O",Amorphous
same,Slurry conversion result (XRPD form),"[1]; 50° C., different solvent systems",amorphous was obtained
same,Slurry conversion result (XRPD form),"[1]; 50° C., n-Heptane",Amorphous
same,Slurry conversion result (XRPD form),"[1]; RT, different solvent systems",Form A and amorphous were obtained
same,Result,"[1]; freebase polymorph screening summary, Slurry at RT/5 °C/50 °C","Form A, amorphous, gel,"
same,Result,"[1]; freebase slurry at 5° C., 2-MeTHF/n-Heptane, 1:3",Gel
same,Result,"[1]; freebase slurry at 5° C., ACN",Form A
same,Result,"[1]; freebase slurry at 5° C., DMAc/n-Heptane, 1:3",Gel
same,Result,"[1]; freebase slurry at 5° C., DMF/H2O, 1:3",Amorphous
same,Result,"[1]; freebase slurry at 5° C., Ethyl lactate/H2O, 1:3",Gel
same,Result,"[1]; freebase slurry at 5° C., IPAc/n-Heptane, 1:3",Amorphous
same,Result,"[1]; freebase slurry at 5° C., MIBK/n-Heptane, 1:3",Gel
same,Result,"[1]; freebase slurry at 5° C., NMP/H2O, 1:4",Amorphous
same,Result,"[1]; freebase slurry at 5° C., Xylene/n-Heptane, 1:3",Amorphous
same,Result,"[1]; freebase slurry at RT, 1,4-Dioxane/H2O, 1:4",Amorphous
same,Result,"[1]; freebase slurry at RT, ACN",Form A
same,Result,"[1]; freebase slurry at RT, ACN/H2O, 1:1",Form A (Low crystallinity)
same,Result,"[1]; freebase slurry at RT, Acetone/H2O, 1:4",Form A
same,Result,"[1]; freebase slurry at RT, Anisole/n-Heptane, 1:4",Gel
same,Result,"[1]; freebase slurry at RT, Benzyl alcohol/n-Heptane, 1:4",Gel
same,Result,"[1]; freebase slurry at RT, CPME/Cyclohexane, 1:4",Amorphous
same,Result,"[1]; freebase slurry at RT, DCM/n-Heptane, 1:4",Form A
same,Result,"[1]; freebase slurry at RT, EtOAc/Cyclohexane, 1:4",Amorphous
same,Result,"[1]; freebase slurry at RT, EtOH",Form A
same,Result,"[1]; freebase slurry at RT, EtOH/H2O, 1:1",Form A
same,Result,"[1]; freebase slurry at RT, IPA",Form A (Low crystallinity)
same,Result,"[1]; freebase slurry at RT, MEK/Cyclohexane, 1:4",Amorphous
same,Result,"[1]; freebase slurry at RT, MTBE",Gel
same,Result,"[1]; freebase slurry at RT, THF/n-Heptane, 1:4",Form A
same,Result,"[1]; freebase slurry at RT, Toluene/Cyclohexane, 1:4",Amorphous
same,Result,"[2]; freebase polymorph screening summary, Liquid Vapor Diffusion","Form A, amorphous, gel, clear"
same,Result,"[2]; freebase, RT, solvent 1.4-Dioxane, anti-solvent n-Heptane",Gel
same,Result,"[2]; freebase, RT, solvent 2-Butanol, anti-solvent n-Heptane",Gel
same,Result,"[2]; freebase, RT, solvent ACN, anti-solvent H2O",Form A
same,Result,"[2]; freebase, RT, solvent Acetone, anti-solvent n-Pentane",Form A
same,Result,"[2]; freebase, RT, solvent Anisole, anti-solvent n-Pentane",Gel
same,Result,"[2]; freebase, RT, solvent CPME, anti-solvent n-Pentane",Gel
same,Result,"[2]; freebase, RT, solvent DMF, anti-solvent H2O",Clear solution
same,Result,"[2]; freebase, RT, solvent DMSO, anti-solvent H2O",Amorphous
same,Result,"[2]; freebase, RT, solvent EtOAc, anti-solvent n-Pentane",Gel
same,Result,"[2]; freebase, RT, solvent IPAc, anti-solvent n-Heptane",Amorphous
same,Result,"[2]; freebase, RT, solvent THF, anti-solvent H2O",Form A (Low crystallinity)
same,Result,"[2]; freebase, RT, solvent Toluene, anti-solvent n-Heptane",Gel
same,Result,"[2]; freebase, RT, solvent Xylene, anti-solvent n-Pentane",Gel
same,Result,"[3]; freebase polymorph screening summary, Slow Evaporation","Form A, amorphous, gel"
same,Result,"[3]; freebase, evaporation at RT, 2-MeTHF",Gel
same,Result,"[3]; freebase, evaporation at RT, ACN",Form A
same,Result,"[3]; freebase, evaporation at RT, Acetone",Form A
same,Result,"[3]; freebase, evaporation at RT, DCM",Form A (Low crystallinity)
same,Result,"[3]; freebase, evaporation at RT, EtOAc",Amorphous
same,Result,"[3]; freebase, evaporation at RT, EtOH",Form A
same,Result,"[3]; freebase, evaporation at RT, IPAc",Gel
same,Result,"[3]; freebase, evaporation at RT, MEK",Amorphous
same,Result,"[3]; freebase, evaporation at RT, MeOH",Amorphous
same,Result,"[3]; freebase, evaporation at RT, THF",Amorphous
same,Result,"[4]; freebase polymorph screening summary, Anti-solvent Addition","Form A, amorphous, gel,"
same,Result,"[4]; freebase, solvent 1.4-Dioxane, anti-solvent H2O",Gel
same,Result,"[4]; freebase, solvent ACN, anti-solvent n-Heptane",Form A (Low
same,Result,"[4]; freebase, solvent Acetone, anti-solvent n-Heptane",Form A (Low
same,Result,"[4]; freebase, solvent Anisole, anti-solvent Cyclohexane",Gel
same,Result,"[4]; freebase, solvent CPME, anti-solvent n-Heptane",Amorphous
same,Result,"[4]; freebase, solvent DCM, anti-solvent Cyclohexane",Form A (Low
same,Result,"[4]; freebase, solvent DMSO, anti-solvent H2O",Low crystallinity
same,Result,"[4]; freebase, solvent EtOAc, anti-solvent n-Heptane",Amorphous
same,Result,"[4]; freebase, solvent MEK, anti-solvent Cyclohexane",Gel
same,Result,"[4]; freebase, solvent MeOH, anti-solvent H2O",Amorphous
same,Result,"[4]; freebase, solvent THF, anti-solvent H2O",Form A (Low
same,Result,"[4]; freebase, solvent Toluene, anti-solvent n-Heptane",Amorphous
same,Result,[5]; freebase polymorph screening summary,"Form A, amorphous, gel, clear"
C=CC(=O)N1CCN(c2nc(OC[C@@H]3CCCN3C)nc3c(F)c(-c4nc(N)cc(C)c4C(F)(F)F)c(Cl)cc23)[C@@H](C)C1 [Compound A],RH at which sample reverts to the original form (VH-XRPD),[6],30 % RH
same,RH at which small changes appear in VH-XRPD,[6]; changes remain up until 80% RH,44-46 % RH
same,Stability of the form for further development,[7],most stable form
C=CC(=O)N1CCN(c2nc(OC[C@@H]3CCCN3C)nc3c(F)c(-c4nc(N)cc(C)c4C(F)(F)F)c(Cl)cc23)[C@@H](C)C1.O=C(O)CCCCC(=O)O [adipate],Result,"[1]; adipate polymorph screening summary, Slurry at RT/50° C.","Compound A Form A, gel, clear"
same,Result,[8],Compound A Form A
same,Result,"[2]; adipate polymorph screening summary, Liquid Vapor Diffusion","Amorphous, clear, gel"
same,Result,"[3]; adipate polymorph screening summary, Slow Evaporation","Gel, clear"
same,Result,"[4]; adipate polymorph screening summary, Anti-solvent Addition","Compound A Form A, B, clear, gel"
same,Result,[9],Compound A Form A
same,Result,[5]; adipate polymorph screening summary,"Compound A Form A, Compound A Form"
